This passage reports Ki results from patent US20240190889A1, “NEW CYCLOPENTA-THIENO-DIAZEPINE DERIVATIVES AS GABA A GAMMA1 POSITIVE ALLOSTERIC MODULATORS” (Hoffmann-La Roche Inc., priority 2021, published 2024).

The first experiment has as its target human GABAA α5β2γ1 receptor (Homo sapiens (Human), UniProt P31644+Q8N1C3). The experiment in a line: Radioligand binding assay, competition for [3H]RO7239181, γ1-containing GABAA subtypes. As to conditions: membranes from HEK293F cells, mean of two determinations. Here is the method:
Membrane Preparation and Binding Assay for γ1-containing GABAA Subtypes
The affinity of compounds at GABAA γ1 subunit-containing receptors was measured by competition for [^3H]RO7239181 (67.3 Ci/mmol: Roche) binding to membranes from HEK293F cells (ThermoFisher R79007) expressing human (transiently transfected) receptors of composition α5β2γ1, α2β2γ1, α1β2γ1. For better protein expression of the α2 subunit-containing receptors, the 28 amino acid long signal peptide (Metl to Ala28) of the human GABAA α2 subunit was substituted by the 31 amino acid long signal peptide (Met1 to Ser31) of human GABAA α5 subunit.
Harvested pellets from HEK293F cells expressing the different GABAA receptor subtypes were resuspended in Mannitol Buffer pH 7.2-7.4 (Mannitol 0.29 M, Tricthylamine 10 mM. Acetic acid 10 mM. EDTA 1 mM plus protease inhibitors (20 tablets Complete. Roche Diagnostics Cat. No. 05 056 489 001 per liter)), washed two times and then resuspended at 1:10 to 1:15 dilution in the same buffer. Cell disruption was performed by stirring the suspension in a Parr vessel #4637 at 435 psi for 15 minutes, and then the suspensions were centrifuged at 1000×g for 15 minutes at 4° C. (Beckman Avanti J-HC: rotor JS-4.2). The supernatant (S1) was transferred in a 21 Schott flask and the pellet (P1) was resuspended with Mannitol Buffer up to 175 ml. The resuspended pellet was transferred into a 250 ml Corning centrifugal beaker and centrifuged at 1500 ×g for 10 minutes at 4° C. (Beckman Avanti J-HC: rotor JS-4.2). The supernatant (S1) was then transferred in the 21 Schott flask and the pellet was discarded. The supernatants (S1) were centrifuged in 500ml Beckman polypropylene centrifugal beaker at 15 000×g for 30 minutes at 4° C. (Beckman Avanti J-20 XP; rotor JLA-10.500). The pellet (P2) was resuspended with Mannitol Buffer 1:1 and frozen at −80° C. The supernatant (S2) was centrifuged in 100 ml Beckman polypropylene centrifugal tubes at 48000×g for 50 minutes at 4 °C (Beckman Avanti J-20 XP: rotor JA-18). The supernatant (S3) was discarded and the pellet (P3) was resuspended with 1:1 Mannitol Buffer. The P2 and P3 protein concentration was determined with the BIORAD Standard assay method with bovine serum albumin as standard and measured on the NANO-Drop 1000. The membrane suspension was aliquots (500μl per tube) and stored at −80° C. until required.
Membrane homogenates were resuspended and polytronised (Polytron PT1200E Kinematica AG) in Potassium Phosphate 10 mM, KCl 100 mM binding buffer at pH 7.4 to a final assay concentration determined with a previous experiment.
Radioligand binding assays were carried out in a volume of 200 μL (96-well plates) which contained 100 μL of cell membranes. [^3H]RO7239181 at a concentration of 1.5 nM (α5β2γ1) or 20-30 nM (α1β2γ1, α2β2γ1) and the test compound in the range of [0.3-10000]33 10^−9 M. Nonspecific binding was defined by […] (α5β2γ1) and […] RO7239181 and typically represented less than 5% (α5β2γ1) and less than 20% (α1β2γ1, α2β2γ1) of the total binding. Assays were incubated to equilibrium for 1 hour at 4° C. and then, membranes were filtered onto unifilter (96-well white microplate with bonded GF/C filters preincubated 20-50 minutes in 0.3% Polyethylenimine) with a Filtermate 196 harvester (Packard BioScience) and washed 4 times with cold Potassium Phosphate 10 mM pH 7.4. KCl 100 mM binding buffer. After anhydrousing, filter-retained radioactivity was detected by liquid scintillation counting. Ki values were calculated using Excel-Fit (Microsoft) and are the means of two determinations.
Representative test results, obtained by the above described assay measuring binding affinity to HEK293 cells expressing human (h) receptors, are shown in the Table 1.
For orientation: Ki means the dissociation constant of the complex between target and ligand, obtained from inhibition or displacement. As to `Cc1nnc2n1-c1sc3c(c1C(c1c(F)cccc1Cl)=NC2)C[C@@H](C#N)C3` [Example 1, (13R)-9-(2-chloro-6-fluoro-phenyl)-3-methyl-16-thia-2,4,5,8-tetrazatetracyclo [8.6.0.02,6.011,15]hexadeca-1(10),3,5,8,11(15)-pentaene-13-carbonitrile], the affinity, expressed as Ki, was 8.8 nM.

In the case of `Cc1nnc2n1-c1sc3c(c1C(c1c(F)cccc1F)=NC2)C[C@@H](C#N)C3` [Example 2, (13R)-9-(2,6-difluorophenyl)-3-methyl-16-thia-2,4,5,8-tetrazatetracyclo [8.6.0.02,6.011,15]hexadeca-1(10),3,5,8,11(15)-pentaene-13-carbonitrile], the inhibition constant Ki was 16.3 nM. Compared with the last compound, the Ki is about 1.9-fold higher.

Take `Cc1nnc2n1-c1sc3c(c1C(c1c(F)cccc1Cl)=NC2)C[C@@H](C(F)F)C3` [Example 4, (13R)-9-(2-chloro-6-fluoro-phenyl)-13-(difluoromethyl)-3-methyl-16-thia-2,4,5,8-tetrazatetracyclo [8.6.0.02,6.011,15]hexadeca-1(10),3,5,8,11(15)-pentaene]: the affinity, expressed as Ki, was 1.2 nM.

In turn, `Fc1cccc(Cl)c1C1=NCc2nnc(C3CC3)n2-c2sc3c(c21)C[C@@H](C(F)F)C3` [Example 6, (13R)-9-(2-chloro-6-fluoro-phenyl)-3-cyclopropyl-13-(difluoromethyl)-16-thia-2,4,5,8-tetrazatetracyclo [8.6.0.02,6.011,15]hexadeca-1(10),3,5,8,11(15)-pentaene] had a Ki of 3.4 nM.

For the compound `Fc1cccc(F)c1C1=NCc2nnc(C3CC3)n2-c2sc3c(c21)C[C@@H](C(F)F)C3` [Example 7, (13R)-3-cyclopropyl-13-(difluoromethyl)-9-(2,6-difluorophenyl)-16-thia-2,4,5,8-tetrazatetracyclo [8.6.0.02,6.011,15]hexadeca-1(10),3,5,8,11(15)-pentaene], affinity was put at a Ki of 2.1 nM.

Compound `C[C@@H]1N=C(c2c(F)cccc2F)c2c(sc3c2C[C@@H](C(F)F)C3)-n2c(C3CC3)nnc21` [Example 8, (7S,13R)-3-cyclopropyl-13-(difluoromethyl)-9-(2,6-difluorophenyl)-7-methyl-16-thia-2,4,5,8-tetrazatetracyclo [8.6.0.02,6.011,15]hexadeca-1(10),3,5,8,11(15)-pentaene] had an inhibitory constant (Ki) of 1.9 nM.

Regarding `Cc1nnc2n1-c1sc3c(c1C(c1c(F)cccc1Cl)=N[C@H]2C)C[C@@H](C(F)F)C3` [Example 9, (7S,13R)-9-(2-chloro-6-fluoro-phenyl)-13-(difluoromethyl)-3,7-dimethyl-16-thia-2,4,5,8-tetrazatetracyclo [8.6.0.02,6.011,15]hexadeca-1(10),3,5,8,11(15)-pentaene], affinity was put at a Ki of 1.6 nM.

As for `Fc1cccc(F)c1C1=NCc2nnc(-c3cccnn3)n2-c2sc3c(c21)C[C@@H](C(F)F)C3` [Example 10, (13R)-13-(difluoromethyl)-9-(2,6-difluorophenyl)-3-pyridazin-3-yl-16-thia-2,4,5,8-tetrazatetracyclo [8.6.0.02,6.011,15]hexadeca-1(10),3,5,8,11(15)-pentaene], the Ki amounted to 3 nM.

With `C[C@@H]1N=C(c2c(F)cccc2Cl)c2c(sc3c2C[C@@H](C(F)F)C3)-n2c(C3CC3)nnc21` [Example 11, (7S,13R)-9-(2-chloro-6-fluoro-phenyl)-3-cyclopropyl-13-(difluoromethyl)-7-methyl-16-thia-2,4,5,8-tetrazatetracyclo [8.6.0.02,6.011,15]hexadeca-1(10),3,5,8,11(15)-pentaene], the affinity, expressed as Ki, was 3.4 nM.

For the compound `C[C@@H]1N=C(c2c(F)cccc2Cl)c2c(sc3c2C[C@@H](C(F)F)C3)-n2c(-c3cccnn3)nnc21` [Example 12, (7S,13R)-9-(2-chloro-6-fluoro-phenyl)-13-(difluoromethyl)-7-methyl-3-pyridazin-3-yl-16-thia-2,4,5,8-tetrazatetracyclo [8.6.0.02,6.011,15]hexadeca-1(10),3,5,8,11(15)-pentaene], the affinity, expressed as Ki, was 3.7 nM.

On to `Cc1nnc2n1-c1sc3c(c1C(c1c(F)cccc1F)=N[C@H]2C)C[C@@H](C(F)(F)F)C3` [Example 13, (7S,13R)-9-(2,6-difluorophenyl)-3,7-dimethyl-13-(trifluoromethyl)-16-thia-2,4,5,8-tetrazatetracyclo [8.6.0.02,6.011,15]hexadeca-1(10),3,5,8,11(15)-pentaene], for which the affinity, expressed as Ki, was 5.9 nM.

Compound `Cc1nnc2n1-c1sc3c(c1C(c1c(F)cccc1F)=NC2)C[C@@H](C)C3` [Example 14, (13R)-9-(2,6-difluorophenyl)-3,13-dimethyl-16-thia-2,4,5,8-tetrazatetracyclo [8.6.0.02,6.011,15]hexadeca-1(10),3,5,8,11(15)-pentaene] gave a Ki of 1.6 nM. Against the preceding compound, the Ki is about 3.7-fold lower.

In turn, `Cc1nnc2n1-c1sc3c(c1C(c1c(F)cccc1F)=N[C@H]2C)C[C@@H](C)C3` [Example 15, (7S,13R)-9-(2,6-difluorophenyl)-3,7,13-trimethyl-16-thia-2,4,5,8-tetrazatetracyclo [8.6.0.02,6.011,15]hexadeca-1(10),3,5,8,11(15)-pentaene] had a Ki of 1.4 nM.

In turn, `Cc1nc2n(n1)-c1sc3c(c1C(c1c(F)cccc1F)=N[C@H]2C)C[C@@H](C(F)F)C3` [Example 16, (7S,13R)-13-(difluoromethyl)-9-(2,6-difluorophenyl)-4,7-dimethyl-16-thia-2,3,5,8-tetrazatetracyclo [8.6.0.02,6.011,15]hexadeca-1(10),3,5,8,11(15)-pentaene] displayed a Ki of 1 nM.

Turning to `Cc1nc2n(n1)-c1sc3c(c1C(c1c(F)cccc1F)=N[C@H]2C)C[C@H](C(F)F)C3` [Example 17, (7S,13S)-13-(difluoromethyl)-9-(2,6-difluorophenyl)-4,7-dimethyl-16-thia-2,3,5,8-tetrazatetracyclo [8.6.0.02,6.011,15]hexadeca-1(10),3,5,8,11(15)-pentaene], the affinity corresponds to a Ki of 31.6 nM.

Compound `C[C@@H]1N=C(c2c(F)cccc2F)c2c(sc3c2C[C@@H](C(F)F)C3)-n2nc(C(=O)NCCO)nc21` [Example 18, (7S,13R)-13-(difluoromethyl)-9-(2,6-difluorophenyl)-N-(2-hydroxyethyl)-7-methyl-16-thia-2,3,5,8-tetrazatetracyclo [8.6.0.02,6.011,15]hexadeca-1(10),3,5,8,11(15)-pentaene-4-carboxamide] showed a Ki of 2.5 nM.

`C[C@@H]1N=C(c2c(F)cccc2F)c2c(sc3c2C[C@@H](C(F)F)C3)-n2nc(C(=O)N3CCS(=O)(=O)CC3)nc21` [Example 19, [(7S,13R)-13-(difluoromethyl)-9-(2,6-difluorophenyl)-7-methyl-16-thia-2,3,5,8-tetrazatetracyclo [8.6.0.02,6.011,15]hexadeca-1(10),3,5,8,11(15)-pentaen-4-yl]-(1,1-dioxo-1,4-thiazinan-4-yl)methanone] displayed a Ki of 4.6 nM.

As to `Cc1cnc2n1-c1sc3c(c1C(c1c(F)cccc1F)=N[C@H]2C)C[C@@H](C(F)F)C3` [Example 20, (7S,13R)-13-(difluoromethyl)-9-(2,6-difluorophenyl)-3,7-dimethyl-16-thia-2,5,8-triazatetracyclo [8.6.0.02,6.011,15]hexadeca-1(10),3,5,8,11(15)-pentaene], the affinity, expressed as Ki, was 3.6 nM.

In the case of `C[C@@H]1N=C(c2c(F)cccc2F)c2c(sc3c2C[C@@H](C(F)F)C3)-n2c(CO)cnc21` [Example 21, [(7S,13R)-13-(difluoromethyl)-9-(2,6-difluorophenyl)-7-methyl-16-thia-2,5,8-triazatetracyclo [8.6.0.02,6.011,15]hexadeca-1(10),3,5,8,11(15)-pentaen-3-yl]methanol], the affinity corresponds to a Ki of 4.7 nM.

The next experiment concerns the target human GABAA α1β2γ1 receptor (Homo sapiens (Human), UniProt P14867+Q8N1C3). Described as above.
Conditions: not given
As for `Cc1nnc2n1-c1sc3c(c1C(c1c(F)cccc1Cl)=NC2)C[C@@H](C#N)C3` [Example 1, (13R)-9-(2-chloro-6-fluoro-phenyl)-3-methyl-16-thia-2,4,5,8-tetrazatetracyclo [8.6.0.02,6.011,15]hexadeca-1(10),3,5,8,11(15)-pentaene-13-carbonitrile], the inhibition constant (Ki) was 47.9 nM.
